{"source": "ChEMBL document CHEMBL1152326", "about": "“Anti-inflammatory sesquiterpenoids from a sponge-derived Fungus Acremonium sp” (J Nat Prod, 2009)", "key": {"[1]": {"test_system": "RAW264.7", "experiment": "Antiinflammatory activity in mouse RAW264.7 cells assessed as inhibition of LPS-induced TNFalpha production at 100 uM after 24 hrs by ELISA relative to control", "assay_type": "functional, cell-based"}, "[2]": {"test_system": "RAW264.7", "experiment": "Antiinflammatory activity in mouse RAW264.7 cells assessed as inhibition of LPS-induced nitric oxide production at 100 uM after 24 hrs by Griess reagent method relative to control", "assay_type": "functional, cell-based"}}, "note": "Active and inactive are the calls of the source. The calls are words filed in the database; no cut-off is given here.", "data": [{"smiles": "C/C(=C\\Cc1c(O)c(Cl)c(C)c(C=O)c1O)CC/C=C(\\C)[C@@H]1CC(=O)C(C)(C)O1", "values": [{"measurement": "Activity", "setting": "[1]", "value": "Active"}, {"measurement": "Activity", "setting": "[2]", "value": "Active"}]}, {"smiles": "C/C(=C\\Cc1c(O)c(Cl)c(C)c(C=O)c1O)CC[C@@]1(C)[C@H](C)CCC(=O)[C@@H]1C", "values": [{"measurement": "Activity", "setting": "[2]", "value": "Active"}]}, {"smiles": "C/C(=C\\Cc1c(O)cc(C)c(C=O)c1O)CC[C@@]1(C)[C@H](C)CCC(=O)[C@@H]1C", "values": [{"measurement": "Activity", "setting": "[2]", "value": "Active"}]}, {"smiles": "CC(/C=C/[C@@]1(C)[C@H](C)CCC(=O)[C@@H]1C)=C\\Cc1c(O)c(Cl)c(C)c(C=O)c1O", "values": [{"measurement": "Activity", "setting": "[1]", "value": "Active"}, {"measurement": "Activity", "setting": "[2]", "value": "Active"}]}]}
